Experiment: Stability and conversion of crystalline forms with relative humidity
Assay type: physicochemical
Details: humidity range not specified

In the case of `Cc1ccc(Cc2c(C#N)cc(O)c(O)c2C#N)cc1` [Form II monohydrate, 4,5-dihydroxy-2-(4-methylbenzyl)isophthalonitrile monohydrate], the “stability of the crystalline form with humidity” value is reported as “stable within a reasonable humidity range”.

From US20210347728A1, “4,5-DIHYDROXY-2-(4-METHYLBENZYL)ISOPHTHALONITRILE SOLVATES AND CRYSTALLINE FORMS THEREOF” (Orion Corporation, priority 2018, published 2021)
